{"source": "patent US20120283293A1", "about": "“Methods of neuroprotection involving Prostaglandin E2 EP4 (PGE2 EP4) receptor activation” (The Board of Trustees of the Leland Stanford Junior …, priority 2011, published 2012)", "key": {"primary human monocytes": {"tested_on": "primary human monocytes", "assay": "TNF-α and IL-6 ELISA in LPS-stimulated primary human monocytes", "format": "cell-based", "conditions": "LPS 100 ng/ml, AE1-329 100 nM, 6 hours", "method": "Human monocyte derived macrophages were purchased from AllCells (Catalog #PB-MDM-001F: Frozen normal peripheral blood monocyte derived macrophages) and plated at a density of 23,000 cells per well in a 96 well plate. Two dilutions (1:5 and 1:10) were tested using anti-human IL6 and anti-human TNFα ELISA to measure concentrations of these two cytokines in pg/ml after 6 hours of stimulation with either vehicle alone, AE1-329 (100 nM), LPS, and LPS plus AE1-329 (100 nM).\nPrimary human monocytes were stimulated with either vehicle (PBS) alone, AE1-329 (100 nM), LPS (100 ng/ml), and LPS (100 ng/ml) plus AE1-329 (100 nM). Two dilutions (1:5 and 1:10) were tested using anti-human IL6 and anti-human TNF-α ELISA to measure concentrations of these two cytokines in pg/ml after 6 hours of stimulation."}, "primary microglia": {"tested_on": "primary microglia", "assay": "qPCR of inflammatory gene expression in LPS-stimulated primary microglia", "format": "cell-based, rat", "conditions": "LPS treated primary microglia, AE1-329 100 nM, 3 h", "method": "Murine microglial-like BV-2 cells were grown in DMEM medium supplemented with 10% heat-inactivated fetal bovine serum (HyClone, Logan, Utah) and 100 units/ml each of penicillin and streptomycin and were maintained at 37° C. in a humidified atmosphere containing 5% CO2. For primary microglial cultures, cerebral cortices were isolated from postnatal day 2 Sprague-Dawley rat pups obtained from Charles River Laboratories International, Inc. (Davis, Calif.). Tissues were minced and incubated in 0.25% trypsin-EDTA, mechanically triturated in DMEM/F-12 with 10% FBS, and plated on poly-L-lysine-coated […]. Cultures were maintained for 14 days with media changes every 4 days. […]\nqPCR was carried out as previously described (Liang et al., 2008). […] The mRNA level for each target gene was quantified by SYBR Green-based qPCR using the QuantiTect SYBR Green PCR kit (Qiagen). […] Quantification was performed using the standard curve method. […]\nInflammatory stimuli such as LPS can activate microglia through the CD14/TLR4 receptor complex and induce the expression of pro-inflammatory enzymes and cytokines (Fassbender et al., 2004; Walter et al., 2007). […] BV-2 cells were treated with LPS (10 ng/ml) in the presence or absence of the selective EP4 agonist AE1-329 (1 μM) for 6 h, and pro-inflammatory gene expression was measured using qPCR (see FIG. 2). […]"}}}
{"smiles": "COCc1ccccc1CC[C@H](O)/C=C/[C@H]1[C@H](O)CC(=O)[C@@H]1SCCCSCC(=O)O", "note": "[AE1-329]", "values": [{"measurement": "LPS-induced increase in IL-6 levels (ELISA)", "setting": "primary human monocytes", "value": "significantly reduced"}, {"measurement": "LPS-induced increase in TNF-α levels (ELISA)", "setting": "primary human monocytes", "value": "entirely reversed"}, {"measurement": "IL-10 expression", "setting": "primary microglia", "value": "upregulation of the anti-inflammatory IL-10"}, {"measurement": "pro-inflammatory gene expression (iNOS, COX-2, TNF-α, gp91phox)", "setting": "primary microglia", "value": "downregulation of pro-inflammatory gene expression"}]}
